In patent EP4617273A1, “FUSED TRICYCLIC PARP1 INHIBITOR, PREPARATION METHOD THEREFOR, AND USE THEREOF” (Haihe Biopharma Co., Ltd., priority 2022, dated 2024):
pIC50: −log10 of the molar value.

How the values were obtained:
MDA-MB-436 cells = assay: MDA-MB-436 cell proliferation inhibition test (CellTiter-Glo, 7 days); format: cell-based; conditions: Homo sapiens, MDA-MB-436, 168 h, 7 days incubation
Description: Human breast cancer MDA-MB-436 (purchased from ATCC) cells were cultured in DMEM medium (supplemented with 10% fetal bovine serum with 1% dual antibody) at 37 °C, 5% CO2. The cells were taken from the logarithmic growth phase, digested and prepare cell suspension witha certain concentration, which was inoculated into 96-well plates. 100 µL of cell suspension was added to each well of the 96-well plates, incubated overnight, then different concentrations of compounds were added, and the cells were incubated in the cell culture incubator for 7 days. At the end of incubation, 50 µL of CellTiter-Glo reagent was added to each well, mixed with a microplate and shaked for 2 min, and left at rt for 60 min, then the fluorescence value was read with a Spark® multimode microplate reader. […] Table 2. proliferation inhibitory activity of compounds of the present invention on MDA-MB-436 cells

MDR1 (P-gp) = assay: MDR1-MDCK II cell model of bidirectional permeability; format: in vitro ADME; conditions: dog, Efflux Ratio = Papp (B-A) / Papp (A-B), read-out: ER ratio
Description: (§1) 2 µM of the test compound was added to the wells at the apical side or the basolateral side of the monolayer of cells and incubated for 2.5 h at 37.0°C in a 5.0% CO2 incubator. Cell monolayer integrity was determined by Lucifer yellowrejection assay. The buffer was removed from the apical side and basolateral side, and the concentration of the subject compounds was determined using LC-MS/MS. The concentration data were used to calculate the apparent permeabilitycoefficients of apical-to-basolateral (A-B) and basolateral-to-apical (B-A)side, and to calculate efflux ratio with the formula: Efflux Ratio = Papp (B-A) / Papp (A-B) Table 3. bidirectional permeability of MDR1-MDCK II cells for compounds of the present invention

MDR1 = assay: as above; format: in vitro ADME; conditions: dog, 2 µM, 2.5 h; for Papp A→B at 2.5 h, 2 µM: apical-to-basolateral; for Papp B→A at 2.5 h, 2 µM: basolateral-to-apical
Description: as §1

[1] = target: T1, recombinant human PARP2 protein (Homo sapiens, UniProt Q9UGN5); assay: PARP2 enzymatic inhibitory activity, histone substrate, chemiluminescent ELISA; format: biochemical; conditions: histone substrate, 500 µM NAD+ not added; read-out: PARP2 IC50
T1 construct: purchased BPS 80502
T1 sequence (Q9UGN5 whole entry): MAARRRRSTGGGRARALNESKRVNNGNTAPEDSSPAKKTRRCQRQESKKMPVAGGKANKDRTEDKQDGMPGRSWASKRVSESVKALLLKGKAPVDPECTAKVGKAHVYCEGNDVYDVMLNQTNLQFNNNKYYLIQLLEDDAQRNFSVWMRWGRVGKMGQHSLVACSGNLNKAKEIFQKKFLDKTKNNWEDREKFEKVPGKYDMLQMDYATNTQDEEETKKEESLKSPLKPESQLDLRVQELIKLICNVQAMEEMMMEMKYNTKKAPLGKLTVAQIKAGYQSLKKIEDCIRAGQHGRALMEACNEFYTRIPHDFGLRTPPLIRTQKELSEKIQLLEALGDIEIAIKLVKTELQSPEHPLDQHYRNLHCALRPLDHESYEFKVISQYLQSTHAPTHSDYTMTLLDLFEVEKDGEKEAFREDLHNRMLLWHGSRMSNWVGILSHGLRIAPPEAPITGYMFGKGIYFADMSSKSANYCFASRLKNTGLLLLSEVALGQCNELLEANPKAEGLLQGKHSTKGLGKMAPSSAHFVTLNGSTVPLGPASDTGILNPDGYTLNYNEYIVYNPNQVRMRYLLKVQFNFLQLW
Description: The PARP2 inhibitory activity assay was performed as in Experimental Method 1, except that PARP1 solution in step 2 of "3. Ribosylation reaction" was replaced with recombinant human PARP2 solution, and 500 µM NAD+ was not added in step 5 of the ribosylation reaction. Table 1. IC50 for inhibition of PARP1/2 enzymes by compounds of the present invention

[2] = Preliminary pharmacokinetic test in mice; format: in vivo; conditions: male, ICR; for AUC(0-t) / clearance / half-life: mouse plasma; for bioavailability: plasma, oral, mouse, p.o. 5 mg/kg versus i.v. 1 mg/kg
Description: 1. Healthy ICR mice were administered the tested compounds intravenously (1 mg/kg) or by gavage (5 mg/kg). Nine male mice weighing 30-35 g for each route of administration were randomly divided into three groups of three mice each.
The mice were fasted for 12h before the test and allowed to drink water freely. The mice were fed 4h after the administration.
Intravenous and gavage administration: 0.25h, 0.5h, 1.0h, 2.0h, 3.0h, 4.0h, 6.0h, 8.0h and 24h after administration.
Blood was collected continuously, and 3 animals were collected at each time point. Plasma collection and processing: 30-40 µL of venous blood was collected from the mouse retroorbital venous plexus at the above set time points, placed in an EDTA-K2 test tube, centrifuged at 3500 rpm for 10 min, and plasma was separated and frozen in a -20 °C refrigerator.
The concentration of the compounds in mouse plasma was determined by LC/MS/MS. Pharmacokinetic parameters after administration were calculated using the […] of Phoenix 8.3 software (Pharsight, USA).

[3] = target: T2, Recombinant human PARP1 protein (Homo sapiens, UniProt P09874); assay: PARP1 enzymatic inhibitory activity, histone substrate, chemiluminescent ELISA; conditions: PARP2 IC50 over PARP1 IC50
T2 sequence (P09874 whole entry): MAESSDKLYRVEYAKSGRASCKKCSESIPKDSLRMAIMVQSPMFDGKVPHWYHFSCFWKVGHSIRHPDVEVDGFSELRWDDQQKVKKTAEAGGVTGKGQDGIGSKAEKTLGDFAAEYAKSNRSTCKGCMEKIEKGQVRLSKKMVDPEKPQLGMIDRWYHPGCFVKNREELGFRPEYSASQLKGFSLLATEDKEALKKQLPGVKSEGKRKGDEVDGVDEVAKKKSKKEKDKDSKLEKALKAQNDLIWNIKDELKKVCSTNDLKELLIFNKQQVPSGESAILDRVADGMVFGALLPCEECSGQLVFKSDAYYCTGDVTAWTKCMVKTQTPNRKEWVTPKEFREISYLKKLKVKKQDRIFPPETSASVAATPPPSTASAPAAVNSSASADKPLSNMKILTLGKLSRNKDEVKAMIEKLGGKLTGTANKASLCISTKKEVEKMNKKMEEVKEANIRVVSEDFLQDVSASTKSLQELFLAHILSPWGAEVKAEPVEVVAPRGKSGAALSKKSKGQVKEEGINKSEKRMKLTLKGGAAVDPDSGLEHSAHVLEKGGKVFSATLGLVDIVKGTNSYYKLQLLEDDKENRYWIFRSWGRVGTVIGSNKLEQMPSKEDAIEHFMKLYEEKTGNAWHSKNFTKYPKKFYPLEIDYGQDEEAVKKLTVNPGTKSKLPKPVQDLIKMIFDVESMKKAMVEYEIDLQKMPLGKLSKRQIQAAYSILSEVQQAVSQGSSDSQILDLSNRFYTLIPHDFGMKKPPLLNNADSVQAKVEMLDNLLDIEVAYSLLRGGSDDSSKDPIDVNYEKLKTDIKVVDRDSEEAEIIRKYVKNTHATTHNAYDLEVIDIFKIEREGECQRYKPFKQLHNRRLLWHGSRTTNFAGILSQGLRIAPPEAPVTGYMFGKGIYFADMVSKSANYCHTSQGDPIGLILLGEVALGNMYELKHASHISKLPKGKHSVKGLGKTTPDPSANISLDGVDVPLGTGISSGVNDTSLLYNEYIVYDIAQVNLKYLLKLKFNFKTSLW
Description: (§2) The PARP1/2 inhibitory activity of the compounds of the present invention was tested in an assay using Histone as a substrate.
(§3) Aim of the assay: to test the PARP1/2 enzymatic activity inhibition IC50 values of the compounds of the present application according to established experimental methods.
(§4) 1. Compound Configuration: Dilute the compounds with DMSO in 384-well plates to a 1000-fold final concentration and set aside.
(§5) 1) Dilute Histone with PBS, add 25uL of Histone mixture to each well and incubate for 2 h. 2) Wash each well 5 times using PBST solution. Remove the solution with a clean paper towel.3) Add 75 uL of Blocking buffer to each well and incubate for 1 h at rt. 4) Wash each well 5 times using PBST solution. Remove the solution with a clean paper towel.
(§6) 2) Use 1× Assay buffer to prepare 2.5× final concentration of PARP1 solution. 3) Add 10 uL of enzyme solution to the compound wells and Max control wells; add 10 uL of 1× Assay buffer. […] 6) Centrifuge at 1000 rpm for 60 seconds and incubate at rt for 2 h. 7) Each well was washed 5 times with PBST solution. Remove the solution with a clean paper towel.
(§7) 1) Prepare Streptavidin-HRP solution, add 25 µL to each well, centrifuge at 1000 rpm for 60 sec, and incubate at rt for 30 min. 2) Wash each well 5 times using PBST solution. Remove the solution with a clean paper towel. 3) Add 50 µL of ELISA Chemiluminescent Substrate per well. 4) Centrifuge at 1000 rpm for 60 seconds and read with EnSight after 5 min.
(§8) The inhibition rate was calculated using the following formula: % inhibition = (max signal - compound signal) / (max signal - min signal) × 100, where 'min signal' is the mean value of negative control wells and 'max signal' is the mean value of positive control wells.
(§9) Fitting the quantitative effect curve: using the log value of the concentration as the X-axis and the percentage inhibition as the Y-axis; using the log(inhibitor) vs. response-variable slope method in software GraphPadPrism5 to fit the quantitative effect curve to calculate the IC50 value for the inhibition of the enzyme activity by the compounds of the present invention. The fitting formula is: Y=Bottom+ (Top-Bottom)/(1+10^((logIC50-X)*HillSlope)).

[4] = target: T2, Recombinant human PARP1 protein; assay: biochemical
Description: as §2, §3, §4, §5, §6, §7, §8, §9

| Compound | pIC50 (MDA-MB-436 cells) | efflux ratio at 2.5 h, 2 µM (MDR1 (P-gp)) | Papp A→B at 2.5 h, 2 µM (MDR1) | Papp B→A at 2.5 h, 2 µM (MDR1) | pIC50 [1] | AUC(0-t) ([2]; iv, i.v. 1 mg/kg) | clearance ([2]; iv, i.v. 1 mg/kg) | half-life ([2]; iv, i.v. 1 mg/kg) | bioavailability [2] | AUC(0-t) ([2]; po, p.o. 5 mg/kg) | half-life ([2]; po, p.o. 5 mg/kg) | PARP1/2 Fold selectivity [3] | pIC50 [4] |
| --- | --- | --- | --- | --- | --- | --- | --- | --- | --- | --- | --- | --- | --- |
| CNC(=O)c1ccc(N2CCN(Cc3ccc4nc(C)c(=O)[nH]c4c3F)CC2)c(F)n1 [AZD-9574] | 7.80 | 1 | 19.4 ×10⁻⁶ cm/s | 19.4 ×10⁻⁶ cm/s |  |  |  |  |  |  |  |  |  |
| CNC(=O)c1ccc(N2CCN(Cc3ccc4c(c3F)NC(=O)N3C[C@@H](C)N=C43)CC2)c(F)n1 [Compound 132] | 7.92 | 2.1 | 12.8 ×10⁻⁶ cm/s | 26.8 ×10⁻⁶ cm/s | 6.54 | 6630 ng·h/mL | 2.8 mL/min/kg | 3 h | 98.7% | 33100 ng·h/mL | 4.4 h | 191.8 | 8.82 |
| CNC(=O)c1ccc(N2CCN(Cc3ccc4c(c3F)NC(=O)N3CC5(CC5)N=C43)CC2)c(F)n1 [Compound 138] | 8.52 |  | 14.7 ×10⁻⁶ cm/s | 17 ×10⁻⁶ cm/s |  |  |  |  |  |  |  |  |  |
| CNC(=O)c1ccc(N2CCN(Cc3ccc4c(c3F)NC(=O)N3CCCN=C43)CC2)c(F)n1 [Compound 139] | 7.98 |  | 16.7 ×10⁻⁶ cm/s | 21.8 ×10⁻⁶ cm/s |  | 2820 ng·h/mL | 5.9 mL/min/kg | 3.1 h | 98% | 13800 ng·h/mL | 3.2 h |  | 9.00 |
| CNC(=O)c1ccc(N2CCN(Cc3ccc4c(c3F)NC(=O)N3CCCN=C43)CC2)c(Cl)n1 [Compound 141] | 8.24 |  | 16.2 ×10⁻⁶ cm/s | 23.1 ×10⁻⁶ cm/s |  | 3020 ng·h/mL | 5.5 mL/min/kg | 1.2 h | 92.6% | 14000 ng·h/mL | 2.5 h |  | 8.89 |
| CNC(=O)c1ccc(N2CCN(Cc3ccc4c(c3F)NC(=O)N3C[C@@H](C)N=C43)CC2)c(Cl)n1 [Compound 154] | 9.48 | 1.64 | 13.9 ×10⁻⁶ cm/s | 22.8 ×10⁻⁶ cm/s | 5.95 | 7240 ng·h/mL | 2.3 mL/min/kg | 1.1 h | 62.1% | 22500 ng·h/mL | 2.3 h | 706.9 | 8.80 |
| CNC(=O)c1ccc(N2CCN(Cc3ccc4c(c3F)NC(=O)N3C4=NC[C@@H]3C)CC2)c(Cl)n1 [Compound 156] | 7.60 |  | 16.3 ×10⁻⁶ cm/s | 21.1 ×10⁻⁶ cm/s |  |  |  |  |  |  |  |  | 8.72 |
| CNC(=O)c1ccc(N2CCN(Cc3ccc4c(c3F)NC(=O)N3CC5(CC5)N=C43)CC2)c(C)n1 [Compound 157] | 8.44 |  | 15.1 ×10⁻⁶ cm/s | 21.6 ×10⁻⁶ cm/s |  |  |  |  |  |  |  |  | 9.30 |
| CNC(=O)c1ccc(N2CCN(Cc3ccc4c(c3F)NC(=O)N3CC5(CC5)N=C43)CC2)c(Cl)n1 [Compound 158] | 8.66 |  | 14.7 ×10⁻⁶ cm/s | 14.1 ×10⁻⁶ cm/s |  | 3090 ng·h/mL | 5.5 mL/min/kg | 0.8 h | 108% | 11000 ng·h/mL | 1 h |  | 9.32 |
| CNC(=O)c1ccc(N2CCN(Cc3ccc4c(c3F)NC(=O)N3CC(F)(F)CN=C43)CC2)c(C)n1 [Compound 160] | 8.24 |  | 14.3 ×10⁻⁶ cm/s | 8.78 ×10⁻⁶ cm/s |  | 10500 ng·h/mL | 1.6 mL/min/kg | 0.86 h | 70.7% | 26100 ng·h/mL | 0.9 h |  | 9.23 |
